Results: PubChem BioAssay (NCI)
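Method: 48-hour compound exposure of cells in 96-well plates, five concentrations, linear interpolation of endpoints. GI50 = concentration required for 50% inhibition of growth. TGI: concentration producing complete growth inhibition.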 Where a SMILES comes first, the peptide text is derived from it. [ ]: non-standard residue; d: D form. The star is where a group is joined. Cbz = O=C(OCc1ccccc1)*; Boc = CC(C)(C)OC(=O)*; Aib = CC(C)(N)C(=O)O; OBn = c1ccc(CO*)cc1; OtBu = CC(C)(C)O*; βAla = NCCC(=O)O

Legend:
Assay in all cases: growth of human tumour cells (NCI), 48 h
[1] = tested on: CCRF-CEM leukemia
[2] = tested on: OVCAR-3 ovarian
[3] = tested on: SK-OV-3 ovarian
[4] = tested on: NCI/ADR-RES ovarian
[5] = tested on: M14 melanoma
[6] = tested on: UACC-62 melanoma
[7] = tested on: UACC-257 melanoma
[8] = tested on: HL-60(TB) leukemia
[9] = tested on: ACHN renal
[10] = tested on: NCI-H522 lung

Compound | TGI [1] | TGI [2] | TGI [3] | GI50 [4] | TGI [4] | TGI [5] | TGI [6] | TGI [7] | TGI [8] | TGI [9] | TGI [10] | GI50 [2] | GI50 [3] | GI50 [5] | GI50 [6] | GI50 [7] | GI50 [8] | GI50 [9] | GI50 [1]
CSC1SCC2C(=O)N(C)C3(CC3C)C(=O)OCC(NC(=O)c3nc4ccccc4cc3O)C(=O)NC(C)C(=O)N(C)C1C(=O)N(C)C1(CC1C)C(=O)OCC(NC(=O)c1nc3ccccc3cc1O)C(=O)NC(C)C(=O)N2C (centres undefined) | < 0.0001 µM | < 0.0001 µM | 17.2 µM | 0.124 µM | 72.7 µM | < 0.0001 µM | < 0.0001 µM | < 0.0001 µM | < 0.0001 µM | > 100 µM | – | – | – | – | – | – | – | – | –
COc1ccc(-c2c(C#N)c(-c3ccccc3)n(NS(=O)(=O)c3ccccc3)c(=O)c2C#N)cc1 | > 100 µM | – | > 100 µM | – | > 100 µM | > 100 µM | > 100 µM | > 100 µM | > 100 µM | > 100 µM | 73.7 µM | – | – | – | – | – | – | – | –
O=C(O)c1ccccc1/C=N\NC1=NCCCCN1 | > 100 µM | > 100 µM | > 100 µM | – | > 100 µM | > 100 µM | > 100 µM | > 100 µM | – | > 100 µM | > 100 µM | – | – | – | – | – | – | – | –
CC1=CC[C@@H]2CC[C@]3(C)[C@H](CC[C@@H]4[C@@]5(C)CCCNC(C)(C)[C@@H]5CC[C@]43C)[C@H]2[C@@H]1C | – | 3.37 µM | 3.5 µM | 1.84 µM | 3.52 µM | 3.26 µM | 3.22 µM | 3.63 µM | 3.5 µM | 3.14 µM | – | 1.91 µM | 1.89 µM | 1.73 µM | 1.77 µM | 1.86 µM | 1.7 µM | 1.76 µM | –
COC(=O)C(COC(=O)/C=C/c1ccc(OC(C)=O)c(OC(C)=O)c1)OC(=O)/C=C/c1ccc(OC(C)=O)c(OC(C)=O)c1 (centres undefined) | 50.6 µM | 29.9 µM | – | – | 50.5 µM | 20.6 µM | 30.9 µM | 29.9 µM | – | 27.8 µM | 26.7 µM | – | – | – | – | – | – | – | –
CCCCSc1n/c(=C\c2ccc(N(C)C)cc2)c2nnnn12 | – | > 100 µM | > 100 µM | – | > 100 µM | > 100 µM | > 100 µM | > 100 µM | > 100 µM | > 100 µM | > 100 µM | – | – | – | – | – | – | – | –
CC1(C)C2CC(c3ccncc3)ON2C(C)(C)N1O (centres undefined) | > 100 µM | > 100 µM | > 100 µM | – | > 100 µM | > 100 µM | > 100 µM | > 100 µM | > 100 µM | > 100 µM | – | – | – | – | – | – | – | – | –
O=C(NCCO)c1ccc(Cl)cc1 | 90.2 µM | > 100 µM | – | – | > 100 µM | > 100 µM | > 100 µM | > 100 µM | – | > 100 µM | > 100 µM | – | – | – | – | – | – | – | –
CCOC(=O)c1cn(-c2ccc(Cl)cc2)c(=O)n2c1nc1ccccc12 | > 100 µM | > 100 µM | – | – | > 100 µM | > 100 µM | > 100 µM | > 100 µM | – | > 100 µM | – | – | – | – | – | – | – | – | –
O=C1NC(N/N=C\c2ccccc2)=N/C1=C/c1ccc(Cl)cc1 | – | 39.7 µM | 43.4 µM | – | 56.6 µM | > 100 µM | – | > 100 µM | – | 30 µM | 44.4 µM | – | – | – | – | – | – | – | –
CC(C)(C)OC(=O)CC(NC(=O)OC(C)(C)C)C(=O)NC(CCCCNC(=O)OCc1ccccc1)C(=O)NC(C)(C)C(=O)NCCC(=O)OCc1ccccc1 (centres undefined) (Boc-D(OtBu)K(Cbz)[Aib][βAla]-OBn; configuration not given here) | – | > 100 µM | > 100 µM | – | > 100 µM | > 100 µM | > 100 µM | – | > 100 µM | > 100 µM | > 100 µM | – | – | – | – | – | – | – | –
COC(=O)[C@@H]1N2C(=S)N(c3ccccc3)C(=O)[C@H]2SC1(C)C | – | > 100 µM | > 100 µM | – | > 100 µM | > 100 µM | > 100 µM | > 100 µM | – | > 100 µM | > 100 µM | – | – | – | – | – | – | – | –
O=c1cc(-c2ccccc2)[nH]c2cccc(S)c12 | > 100 µM | > 100 µM | 26.1 µM | – | 0.236 µM | > 100 µM | > 100 µM | > 100 µM | > 100 µM | > 100 µM | – | – | – | – | – | – | – | – | –
COc1c/c(=C2/C=c3ccccc3=N2)[nH]/c1=C/c1[nH]c(C)cc1C | > 100 µM | 1.02 µM | – | – | – | – | – | – | 2.77 µM | – | – | 0.046 µM | – | – | – | – | 0.05 µM | – | 0.0313 µM
CCOC(=O)C(C(=O)Cc1ccccc1)c1ccccc1 (centres undefined) | > 100 µM | > 100 µM | > 100 µM | – | – | > 100 µM | > 100 µM | > 100 µM | > 100 µM | > 100 µM | > 100 µM | – | – | – | – | – | – | – | –
COc1cc2ccnc3c2c(c1O)N(C)C=C3 | > 100 µM | 17.8 µM | 27.4 µM | – | 54.5 µM | 37 µM | 25.6 µM | 32.5 µM | – | 27.6 µM | – | – | – | – | – | – | – | – | –
Cc1ccc2c(c1)OC1Nc3ccccc3C1=C2O (centres undefined) | – | 21.1 µM | 64.3 µM | – | 86.3 µM | 68 µM | 48 µM | 69.3 µM | 43.1 µM | 60.8 µM | > 100 µM | – | – | – | – | – | – | – | –
OCCN=C1Nc2ccc(Cl)cc2C(=S)N2CSC[C@@H]12 | – | > 100 µM | > 100 µM | – | > 100 µM | > 100 µM | > 100 µM | – | – | > 100 µM | > 100 µM | – | – | – | – | – | – | – | –
C=C1C[C@]23C[C@@]1(O)CC[C@H]2[C@@]12C=C[C@H](O)[C@@](C)(C(=O)O1)[C@H]2[C@@H]3C(=O)O | > 100 µM | > 100 µM | > 100 µM | – | – | > 100 µM | > 100 µM | > 100 µM | > 100 µM | – | > 100 µM | – | – | – | – | – | – | – | –
C/C=C/[C@H]1O[C@@](OC)([C@@H](C)[C@H](O)[C@H](C)[C@H]2OC(=O)/C(OC)=C/C(C)=C/[C@@H](C)[C@@H](O)[C@@H](C)[C@@H](O)[C@H](C)C/C(C)=C/C=C/[C@@H]2OC)CC(OC2CC(O)C(OC(N)=O)C(C)O2)[C@@H]1C (some centres undefined) | – | 10.1 µM | 20.7 µM | – | 19.4 µM | < 0.0124 µM | – | < 0.0143 µM | – | 8.27 µM | 1.42 µM | – | – | – | – | – | – | – | –
COc1ccc(CNc2nc(NCc3ccc(OC)cc3)nc(N3CCOCC3)n2)cc1 | – | 6.81 µM | > 100 µM | – | 13 µM | > 100 µM | > 100 µM | > 100 µM | 13.6 µM | > 100 µM | > 100 µM | – | – | – | – | – | – | – | –
COC(=O)C(C)Sc1nc2cc(Cl)ccc2s1 (centres undefined) | > 100 µM | > 100 µM | > 100 µM | – | > 100 µM | > 100 µM | > 100 µM | > 100 µM | – | > 100 µM | > 100 µM | – | – | – | – | – | – | – | –
